Marks after values point to notes of the source that are not given here.
Columns and labels:
CXCL-1 = test: COPD mouse model: CXCL-1 in bronchoalveolar lavage fluid by ELISA; type: in vivo, BALB/c mice; details: for CXCL-1: BALF; for % inhibition of CXCL-1: vs COPD group
Protocol: (§1) To make COPD mouse models, 8-week-old male BALB/c mice were anesthetized with 7% chloral hydrate, and then intratracheally inhaled with 100 μl of a 1:1 mixture of 100 μg/ml of LPS and 4 mg/ml, of standard cigarette smoking (CS) extract (LPS+CS mixture) once a week for 3 weeks. […] EC-18 was dissolved in 0.5% CMC (carboxmethylcellulose sodium) to concentrations of 30 mg/kg and 60 mg/kg, and administered orally to the mice at 1 hour before intratracheal inhalation of 100 μl of the PS+CS mixture. The mice were divided into: (i) an untreated normal group (intact); (ii) a control group treated with LPS+CS (COPD-control); (iii) a test group administered orally with 30 mg/kg of EC-18 at 1 hour before treatment with LPS+CS; and (iv) a test group administered orally with 60 mg/kg of EC-18 at 1 hour before treatment with the LPS+CS mixture. After completion of the experiment, blood, bronchoalveolar lavage fluid and lung tissue were isolated from the mice of each of the groups.
(§2) The levels of CXCL-1, TNF-α and MIP-2 in the bronchoalveolar lavage isolated from the mice were measured by an enzyme-linked immunosorbent assay (ELISA). An antibody specific for each of CXCL-1, TNF-α and MIP-2 was diluted in coating buffer (291195, R&D System), coated on microwells, and then incubated overnight at 4° C. Each well was washed three times with washing buffer, and then 100 μl of serum (10-fold diluted) was added to each well. Each well was allowed to stand at room temperature for 1 hour, and then washed twice with washing buffer antibody, after which each well was treated with 100 μl of avidin-conjugated HRP (DY998, R&D System) and allowed to stand at room temperature for 1 hour, followed by washing. 100 μl of a TMB substrate was added to each well which was then allowed to stand in a dark room for 30 minutes and treated with 50 μl of a stop solution. Next, the absorbance at 450 nm was measured using an ELISA reader (Emax, Molecular Devices), and the percent inhibition of expression was calculated.

TNF-α = test: COPD mouse model: TNF-α in bronchoalveolar lavage fluid by ELISA; type: in vivo, BALB/c mice; details: for TNF-α: BALF; for % inhibition of TNF-α: vs COPD group
Protocol: as §1, §2

sepsis animal model = details: cecal-ligation-puncture; cited from earlier work
MIP-2 = test: COPD mouse model: MIP-2 in bronchoalveolar lavage fluid by ELISA; type: in vivo, BALB/c mice; details: for MIP-2: BALF; for % inhibition of MIP-2: vs COPD group
Protocol: as §1, §2

[1] = system: total inflammatory cells in bronchoalveolar lavage fluid; test: COPD mouse model (LPS+CS): total cell count in bronchoalveolar lavage fluid; type: in vivo, BALB/c mice; details: BALF; for % inhibition of total cell: vs COPD group
Protocol: as §1
(§3) After blood collection, the mice were dissected. To isolate cells from the bronchoalveolar lavage fluid (BALF), a syringe containing 1 ml of FBS-free DMEM medium was injected into the trachea and fixed with a string, and then cells were separated by performing circulation three times and were treated with ACK solution at 37° C. for 5 minutes to lyse red blood cells. Next, the cells were washed with FBS-free DMEM medium and then stained with 0.04% trypan blue, after which the number of total cells was measured.

[2] = system: neutrophils in bronchoalveolar lavage fluid; test: COPD mouse model (LPS+CS): neutrophil count in bronchoalveolar lavage fluid; type: in vivo, BALB/c mice; details: BALF; for % inhibition of neutrophil: vs COPD group
Protocol: as §1, §3

IL-4 mRNA = test: Inhibition of PMA-induced IL-4 mRNA expression in EL-4 cells (PCR); type: cell-based, mouse; details: 20 μg/mL, PMA 1 ng/mL; for Inhibition (%) of IL-4 mRNA expression: vs PMA-treated group
Protocol: Based on the results of Example 1, each of the monoacetyldiacylglycerol compounds was added to EL-4 cells at a concentration of 20 μg/mL, and the effect thereof on the inhibition of PMA-induced expression of IL-4 mRNA in the EL-4 cells was measured. Specifically, the expression level of IL-4 mRNA induced by PMA (1 ng/mL) was measured using real-time polymerase chain reaction (real-time PCR) and quantitative real time polymerase chain reaction (qPCR). For cell preparation, EL-4 cells were seeded into a 6-well plate at a concentration of 1×10^6 cells/well and cultured for 12 hours, after which the cells were treated with each of the monoacetyldiacylglycerol compounds at a concentration of 20 μg/mL for 1 hour and treated with PMA at a concentration of 1 ng/m, followed by culture for 12 hours. Total RNA was extracted from the cells using Trizol B (Invitrogen, USA) and quantified, and then cDNA was synthesized from the total RNA using an Omniscript RT kit (Qiagen, GmbH, Hilden, Germany). The synthesized cDNA as a template was mixed with each of the IL-4 and GAPDH primers shown in Table 2 below and was subjected to PCR using a PCR mix (PCR Master Mix, Bioneer, Korea) under the following conditions: denaturation at 94° C. for 5 minutes; and then 30 cycles, each consisting of 30 sec at 95° C., 45 sec at 60° C., and 45 sec at 72° C.; followed by enzyme inactivation at 72° C. for 10 minutes. The results of measuring the percent inhibition of expression of IL-4 mRNA in EL-4 cells as described above are shown in Table 3 below. The designation of each of the samples shown in Table 3 below is as described with respect to Table above.

Gr-1+ neutrophils = test: COPD mouse model: Gr-1+ neutrophils in BAL by flow cytometry; type: in vivo, BALB/c mice; details: for Gr-1^+ neutrophils (10^4): BAL cells; for % inhibition of Gr-1^+ neutrophils: vs COPD group
Protocol: as §1
(§4) The separated BAL cells were adjusted to 5×10^5 cells, and then subjected to immunofluorescence staining at 4° C. PE-anti-CD4 (553047, BD Pharmingen) and PE-anti-Gr-1 (553128, BD Pharmingen) were added to the cells which were then incubated on ice for 30 minutes. After incubation, the cells were washed three times or more with phosphate buffered saline, and then the frequency of CD4^+ cells and Gr-1^+ neutrophils was analyzed using the Cell Quest program (643274, BD Biosciences) of a flow cytometer. Next, based on total cells, the absolute number of cells in each tissue was calculated.

[3] = GLP toxicity test; cited from earlier work
CD4+ cells = test: COPD mouse model: CD4+ cells in BAL by flow cytometry; type: in vivo, BALB/c mice; details: for CD4^+ cells (10^4): BAL cells; for % inhibition of CD4^+ cells: vs COPD group
Protocol: as §1, §4

EL-4 cells = details: mouse, 24 h, 10 μg/ml
Protocol: EL-4 cells that are mouse T lymphoma cells were suspended in 10% fetal bovine serum-containing RPMI medium (Gibco) at a concentration of 5×10^4 cells/ml, and 100 μl of the cell suspension was seeded into each well of a 96-well plate and cultured for 12 hours. Next, the cell culture was treated with monoacetyldiacylglycerol (MADG) compounds at the concentrations shown in Table 1 below, and was then additionally cultured for 24 hours. Next, according to the instruction provided in a CCK-8 kit (Dojindo) capable of counting cells, 10 μl of CCK-8 solution was added to the kit and allowed to react for 30 minutes to 4 hours, and then the absorbance (OD) at 570 nm was measured. In equation 1, the negative control group indicates a cell culture treated with 0.2% DMSO. […] Cell viability (%)=[(OD 570 nm value of MADC-treated group)/(OD 570 nm value of negative control group)]×100 Equation 1

CCCCC/C=C\C/C=C\CCCCCCCC(=O)OC(COC(C)=O)COC(=O)CCCCCCCCCCCCCCC (stereo not shown) [EC-18, 1-palmitoyl-2-linoleoyl-3-acetylglycerol]
CXCL-1 (CXCL-1; 30 mg/kg oral): 264.3 ± 79.77 pg/mL | % inhibition of CXCL-1 (CXCL-1; 30 mg/kg oral): 15.4% | CXCL-1 (CXCL-1; 60 mg/kg oral): 142.9 ± 26.99 pg/mL | % inhibition of CXCL-1 (CXCL-1; 60 mg/kg oral): 54.3% | TNF-α (TNF-α; 30 mg/kg oral): 22.4 ± 13.98 pg/mL | % inhibition of TNF-α (TNF-α; 30 mg/kg oral): 36.0% | TNF-α (TNF-α; 60 mg/kg oral): 13.4 ± 5.33 pg/mL | % inhibition of TNF-α (TNF-α; 60 mg/kg oral): 61.8% | survivability ratio of animals (sepsis animal model): increases survivability ratio of animals | MIP-2 (MIP-2; 30 mg/kg oral): 28.9 ± 5.72 pg/mL | % inhibition of MIP-2 (MIP-2; 30 mg/kg oral): 40.6% | MIP-2 (MIP-2; 60 mg/kg oral): 17.6 ± 4.07 pg/mL | % inhibition of MIP-2 (MIP-2; 60 mg/kg oral): 63.8% | Total cell (10^6) ([1]; 30 mg/kg oral): 81.0 ± 12.14^ 10^6 | % inhibition of total cell ([1]; 30 mg/kg oral): 15.1% | Total cell (10^6) ([1]; 60 mg/kg oral): 52.8 ± 10.41* 10^6 | % inhibition of total cell ([1]; 60 mg/kg oral): 44.8% | Neutrophil ([2]; 30 mg/kg oral): no great change | % inhibition of neutrophil ([2]; 30 mg/kg oral): 3% | Neutrophil ([2]; 30 mg/kg oral, listed as EC18): 196.9 ± 31.61 | Neutrophil ([2]; 60 mg/kg oral): 116.8 ± 37.43 | % inhibition of neutrophil ([2]; 60 mg/kg oral): 42% | Expression level of IL-4 mRNA (percentage relative to PMA-treated group) (IL-4 mRNA): 78.17 ± 6.26 percentage | Inhibition (%) of IL-4 mRNA expression (IL-4 mRNA): 21.83% | Gr-1^+ neutrophils (10^4) (Gr-1+ neutrophils; 30 mg/kg oral): 20.0 ± 6.97 10^4 | % inhibition of Gr-1^+ neutrophils (Gr-1+ neutrophils; 30 mg/kg oral): 40.9% | Gr-1^+ neutrophils (10^4) (Gr-1+ neutrophils; 60 mg/kg oral): 12.6 ± 4.93 10^4 | % inhibition of Gr-1^+ neutrophils (Gr-1+ neutrophils; 60 mg/kg oral): 62.7% | toxicity [3]: no-toxicity | CD4^+ cells (10^4) (CD4+ cells; 30 mg/kg oral): 308.2 ± 66.78 10^4 | % inhibition of CD4^+ cells (CD4+ cells; 30 mg/kg oral): 39.6% | CD4^+ cells (10^4) (CD4+ cells; 60 mg/kg oral): 152.8 ± 66.25 10^4 | % inhibition of CD4^+ cells (CD4+ cells; 60 mg/kg oral): 70.0%

CCCCCCCCCCCCCCCC(=O)OCC(COC(C)=O)OC(=O)CCCCCCCCCCCCCCC (stereo not shown) [PPAG, 1-palmitoyl-2-palmitoyl-3-acetylglycerol]
Expression level of IL-4 mRNA (percentage relative to PMA-treated group) (IL-4 mRNA): 48.62 ± 19.38 percentage | Inhibition (%) of IL-4 mRNA expression (IL-4 mRNA): 51.38%

CCCCC/C=C\C/C=C\CCCCCCCC(=O)OCC(COC(C)=O)OC(=O)CCCCCCCCCCCCCCCCC (stereo not shown) [LSAG, 1-linoeoyl-2-stearoyl-3-acetylglycerol]
Expression level of IL-4 mRNA (percentage relative to PMA-treated group) (IL-4 mRNA): 41.62 ± 17.61 percentage

CCCCCCCC/C=C\CCCCCCCC(=O)OCC(COC(C)=O)OC(=O)CCCCCCCCCCCCCCC (stereo not shown) [OPAG, 1-oleoyl-2-palmitoyl-3-acetylglycerol]
Expression level of IL-4 mRNA (percentage relative to PMA-treated group) (IL-4 mRNA): 58.58 ± 21.74 percentage | Inhibition (%) of IL-4 mRNA expression (IL-4 mRNA): 41.42%

CCCCCCCC/C=C\CCCCCCCC(=O)OCC(COC(C)=O)OC(=O)CCCCCCCCCCCCCCCCC (stereo not shown) [OSAG, 1-oleoyl-2-stearoyl-3-acetylglycerol]
Expression level of IL-4 mRNA (percentage relative to PMA-treated group) (IL-4 mRNA): 55.84 ± 25.77 percentage | Inhibition (%) of IL-4 mRNA expression (IL-4 mRNA): 44.16%

CCCCC/C=C\C/C=C\CCCCCCCC(=O)OCC(COC(C)=O)OC(=O)CCCCCCCCCCCCCCC (stereo not shown) [LPAG, 1-linoeoyl-2-palmitoyl-3-acetylglycerol]
Expression level of IL-4 mRNA (percentage relative to PMA-treated group) (IL-4 mRNA): 61.11 ± 27.49 percentage

CCCCCCCC/C=C\CCCCCCCC(=O)OC(COC(C)=O)COC(=O)CCCCCCCCCCCCCCC (stereo not shown) [POAG, 1-palmitoyl-2-oleoyl-3-acetylglycerol]
Expression level of IL-4 mRNA (percentage relative to PMA-treated group) (IL-4 mRNA): 75.47 ± 13.15 percentage | Inhibition (%) of IL-4 mRNA expression (IL-4 mRNA): 24.53% | EL-4 cell viability (%, mean ± SD) (EL-4 cells): 106.39 ± 1.19%

CCCCCCCCCCCCCCCCCC(=O)OC(COC(C)=O)COC(=O)CCCCCCCCCCCCCCC (stereo not shown) [PSAG, 1-palmitoyl-2-stearoyl-3-acetylglycerol]
Expression level of IL-4 mRNA (percentage relative to PMA-treated group) (IL-4 mRNA): 70.49 ± 17.78 percentage | Inhibition (%) of IL-4 mRNA expression (IL-4 mRNA): 29.51%

— patent US10765655B2, “Composition containing monoacetyldiglyceride compound as active ingredient for preventing or treating chronic obstructive pulmonary disease” (ENZYCHEM LIFESCIENCES CORPORATION, priority 2013, dated 2020)
